pIC50: −log10 of the molar value. Like-named read-outs stand apart in the source and are kept apart here.
What was measured:
[1] = target: T1, PIM-2 (Homo sapiens, UniProt Q9P1W9); assay: PIM-2 biochemical assay (ADP Hunter); details: semi-quantitative class; read-out: PIM2 IC50;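 further: recombinant N-terminally His-tagged human enzyme, kinase activity quantified by detection of ADP formed as the direct reaction product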
T1 construct: histidine tag (N); made in house

[2] = target: T2, PIM-1 (Homo sapiens, UniProt P11309); assay: PIM-1 biochemical assay (ADP Hunter); details: semi-quantitative class; read-out: PIM1 IC50;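 further: recombinant human PIM-1 carrying a C-terminal His tag, kinase activity quantified via ADP formed as the direct enzymatic product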
T2 construct: histidine tag (C); made in house
T2 sequence (P11309 whole entry): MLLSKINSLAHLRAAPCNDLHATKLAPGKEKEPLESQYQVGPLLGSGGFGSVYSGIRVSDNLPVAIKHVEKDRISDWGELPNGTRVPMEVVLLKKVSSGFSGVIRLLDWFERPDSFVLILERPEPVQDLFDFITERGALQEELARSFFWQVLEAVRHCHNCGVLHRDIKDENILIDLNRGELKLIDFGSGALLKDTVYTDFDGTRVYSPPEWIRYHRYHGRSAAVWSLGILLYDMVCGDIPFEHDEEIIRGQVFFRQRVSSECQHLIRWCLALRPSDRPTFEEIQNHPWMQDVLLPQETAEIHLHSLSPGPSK

[3] = target: T3, PIM-3 (Homo sapiens, UniProt Q86V86); assay: PIM-3 biochemical assay (ADP Hunter); details: read-out: PIM3 IC50;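 further: kinase activity read out as the quantity of ADP generated by the enzyme reaction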
T3 construct: purchased Millipore 14-738

[4] = target: T4, FLT3 (Homo sapiens, UniProt P36888); assay: FLT3 biochemical assay (ADP Hunter); details: semi-quantitative class;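 further: FLT3 enzymatic activity quantified through the ADP produced by the kinase reaction, detected with an ADP Hunter readout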
T4 sequence (P36888 27-993): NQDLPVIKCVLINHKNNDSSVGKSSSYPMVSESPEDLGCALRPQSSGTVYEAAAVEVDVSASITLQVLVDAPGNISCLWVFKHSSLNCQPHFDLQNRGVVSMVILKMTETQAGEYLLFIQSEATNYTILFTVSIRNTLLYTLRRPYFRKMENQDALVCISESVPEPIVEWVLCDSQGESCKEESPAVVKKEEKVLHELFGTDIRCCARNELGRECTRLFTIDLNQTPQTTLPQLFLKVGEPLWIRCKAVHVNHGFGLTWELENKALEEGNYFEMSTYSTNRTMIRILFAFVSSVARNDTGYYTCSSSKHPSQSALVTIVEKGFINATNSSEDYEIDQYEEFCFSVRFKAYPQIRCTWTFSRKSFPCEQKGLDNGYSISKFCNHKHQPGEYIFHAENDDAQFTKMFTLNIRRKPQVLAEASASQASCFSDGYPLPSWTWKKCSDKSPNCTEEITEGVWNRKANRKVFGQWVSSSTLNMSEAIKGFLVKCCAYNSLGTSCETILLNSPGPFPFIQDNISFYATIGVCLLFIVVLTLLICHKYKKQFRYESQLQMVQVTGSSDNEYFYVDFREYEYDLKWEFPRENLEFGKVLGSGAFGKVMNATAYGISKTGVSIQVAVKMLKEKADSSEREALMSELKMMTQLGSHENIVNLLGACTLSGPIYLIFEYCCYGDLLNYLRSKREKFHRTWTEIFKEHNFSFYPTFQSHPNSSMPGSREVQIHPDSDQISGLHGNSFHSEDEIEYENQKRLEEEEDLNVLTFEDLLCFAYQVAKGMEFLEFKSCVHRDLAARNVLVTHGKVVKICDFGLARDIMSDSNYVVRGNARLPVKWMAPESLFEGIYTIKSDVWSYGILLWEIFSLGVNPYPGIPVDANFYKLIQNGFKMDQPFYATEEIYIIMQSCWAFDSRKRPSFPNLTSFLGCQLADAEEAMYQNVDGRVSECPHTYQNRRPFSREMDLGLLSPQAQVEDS

T1 sequence (Q9P1W9 whole entry): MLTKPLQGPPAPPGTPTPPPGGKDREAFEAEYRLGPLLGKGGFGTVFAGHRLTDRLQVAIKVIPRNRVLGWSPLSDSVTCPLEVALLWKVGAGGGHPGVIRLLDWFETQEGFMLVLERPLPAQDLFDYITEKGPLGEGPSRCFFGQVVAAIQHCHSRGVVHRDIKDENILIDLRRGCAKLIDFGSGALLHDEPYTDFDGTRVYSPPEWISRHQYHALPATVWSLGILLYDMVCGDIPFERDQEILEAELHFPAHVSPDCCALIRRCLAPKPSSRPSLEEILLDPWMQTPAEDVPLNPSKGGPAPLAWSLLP

Row | SMILES | pIC50 [1] | pIC50 [2] | also measured
1 | COc1ccc(-n2nnc3ccc(N4CCCCCC4)nc32)cc1 [2-01] | < 6.00 | – | –
2 | COc1ccc(-n2nnc3ccc(NCc4ccc(F)cc4)nc32)cc1 [2-02, (4-Fluoro-benzyl)-[3-(4-methoxy-phenyl)-3H-[1,2,3]triazolo[4,5-b]pyridin-5-yl]amine] | < 6.00 | – | –
3 | COc1ccc(-n2nnc3ccc(NCc4cccc(Cl)c4)nc32)cc1 [2-03] | < 6.00 | < 6.00 | –
4 | Oc1ccc(-n2nnc3ccc(NCc4ccc(F)cc4)nc32)cc1 [2-04, 4-[5-(4-Fluoro-benzylamino)-[1,2,3]triazolo[4,5-b]pyridin-3-yl]-phenol] | 6.00 to 7.00 | – | pIC50 ([3]; actual IC50 value in parentheses): 7.29; pIC50 ([3]; semi-quantitative class): > 7.00; pIC50 [4]: < 6.00
5 | Oc1ccc(-n2nnc3ccc(N4CCCCCC4)nc32)cc1 [2-05] | – | – | pIC50 [4]: < 6.00
6 | CCOC(=O)c1cc2nnn(-c3ccc(OC)cc3)c2nc1NCc1ccc(F)cc1 [2-06] | < 6.00 | < 6.00 | –
7 | CCOC(=O)c1cc2nnn(-c3ccc(OC)cc3)c2nc1N1CCCCCC1 [2-07] | < 6.00 | < 6.00 | –
8 | FC(F)(F)Oc1cccc(-n2nnc3ccc(NCCc4cccnc4)nc32)c1 [2-08] | < 6.00 | – | –
9 | CCCNc1ccc2nnn(-c3cccc(OC(F)(F)F)c3)c2n1 [2-09] | < 6.00 | – | –
10 | FC(F)(F)Oc1cccc(-n2nnc3ccc(NC4CCOCC4)nc32)c1 [2-10] | < 6.00 | – | –
11 | c1ccc(CCNc2ccc3nnn(-c4ccccc4)c3n2)cc1 [2-11] | < 6.00 | – | –
12 | Fc1ccc(-n2nnc3ccc(N4CCCCCC4)nc32)cc1 [2-12] | < 6.00 | – | –
13 | Fc1ccc(-n2nnc3ccc(N4CCOCC4)nc32)cc1 [2-13] | < 6.00 | – | –
14 | CCOC(=O)c1cc2nnn(-c3ccc(OC)cc3)c2nc1NCC1CCN(C)CC1 [2-14, 3-(4-Methoxy-phenyl)-5-[(1-methyl-piperidin-4-ylmethyl)-amino]-3H-[1,2,3]triazolo[4,5-b]pyridine-6-carboxylic acid ethyl ester] | < 6.00 | < 6.00 | –
15 | CCOC(=O)c1cc2nnn(-c3ccc(O)cc3)c2nc1NCc1ccc(F)cc1 [2-15] | < 6.00 | < 6.00 | –
16 | CCOC(=O)c1cc2nnn(-c3ccc(O)cc3)c2nc1N1CCCCCC1 [2-16] | < 6.00 | < 6.00 | –
17 | COc1cccc(CCNc2ccc3nnn(-c4ccc(F)cc4)c3n2)c1OC [2-17] | < 6.00 | < 6.00 | –
18 | NS(=O)(=O)c1ccc(CCNc2ccc3nnn(-c4ccccc4)c3n2)cc1 [2-18] | < 6.00 | – | –
19 | CN1CCC(CNc2ccc3nnn(-c4cccc(OC(F)(F)F)c4)c3n2)CC1 [2-19, (1-Methyl-piperidin-4-ylmethyl)-[3-(3-trifluoromethoxy-phenyl)-3H-[1,2,3]triazolo[4,5-b]pyridin-5-yl]-amine] | < 6.00 | – | pIC50 ([3]; semi-quantitative class): 6.00 to 7.00; pIC50 [4]: < 6.00
20 | FC(F)(F)Oc1cccc(-n2nnc3ccc(NCC4CC4)nc32)c1 [2-20] | < 6.00 | 6.00 to 7.00 | –
21 | CN(C)C(=O)CN1CCC(CNc2ccc3nnn(-c4cccc(OC(F)(F)F)c4)c3n2)CC1 [2-22] | < 6.00 | – | –
22 | CC(=O)Nc1ccc(-n2nnc3ccc(NCC4CCN(C)CC4)nc32)cc1 [2-23] | < 6.00 | < 6.00 | –
23 | CCCNc1ccc2nnn(-c3ccc(O)cc3)c2n1 [2-24] | < 6.00 | – | –
24 | O=C(CN1CCC(CNc2ccc3nnn(-c4cccc(OC(F)(F)F)c4)c3n2)CC1)C1CC1 [2-26] | < 6.00 | – | –
25 | FC(F)(F)Oc1cccc(-n2nnc3ccc(NCC4CCN(C5CC5)CC4)nc32)c1 [2-27] | < 6.00 | 6.00 to 7.00 | –
26 | FCCN1CCC(CNc2ccc3nnn(-c4cccc(OC(F)(F)F)c4)c3n2)CC1 [2-28] | < 6.00 | – | pIC50 ([3]; semi-quantitative class): < 6.00; pIC50 [4]: < 6.00
27 | O=CNCCN1CCN(c2ccc3nnn(-c4cccc(OC(F)(F)F)c4)c3n2)CC1 [2-29] | < 6.00 | 6.00 to 7.00 | –
28 | COCCN1CCC(CNc2ccc3nnn(-c4cccc(OC(F)(F)F)c4)c3n2)CC1 [2-30] | < 6.00 | – | pIC50 [4]: < 6.00
29 | FC(F)(F)Oc1cccc(-n2nnc3ccc(NCC4CCN(CC5CC5)CC4)nc32)c1 [2-31] | < 6.00 | – | pIC50 [4]: < 6.00

Source: patent US20130065883A1 (Centro Nacional de Investigaceiones Oncologicas (CNIO), priority 2010, published 2013)
